One compound from patent US20240252651A1, “METHOD OF DELIVERING NUCLEIC ACIDS INTO CELLS” (GUANGZHOU LIDE BIOMEDICINE TECHNOLOGY CO., LTD., priority 2021, published 2024) can be followed below.

Entries after “also recorded” stand apart in the source; their conditions may differ.

Experiment [1] relates to Hela cells. The experiment in a line: Transfection of GFP-expressing plasmid DNA in Hela cells (flow cytometer). Type of experiment: cell-based, human. Conditions: plasmid DNA 0.5 μg/well, material 0.25 to 8 μg/well (dosages per FIG. 4), 24 h. As for the experimental part: In this experiment, with GFP-expressing plasmid DNA as a reporter gene, a gene transfection efficiency of a cationic lipid analog material in Hela cells was detected. A specific method was as follows:
Hela cells were inoculated in a 24-well plate and cultured in an incubator for 12 h; each of different cationic lipid analog materials (0.25 μg/well to 8 μg/well) was mixed with GFP-expressing plasmid DNA (0.5 μg/well) in 40 μL of a sodium acetate buffer (25 mM, pH 5.2), and resulting mixtures each were allowed to stand for 10 min and then diluted with 460 μL of an Opti-MEM medium to obtain plasmid DNA-loaded cationic lipid analog complex particle solutions; a medium for the Hela cells in the plate was removed, then the HeLa cells were washed once with PBS, and the complex particle solutions were added; and the cells were cultured for 24 h, and then a plasmid DNA transfection efficiency in cells was analyzed by a flow cytometer. A commercial gene transfection reagent Lipofectamine 2000 was adopted as a positive control.

Another experiment relates to DC 2.4 cells. The experiment in a line: Transfection of eGFP-mRNA in DC 2.4 cells (FCM and LSCM). It counts as cell-based, mouse. Conditions: mRNA 0.2 μg/well, material 0.25 to 2 μg/well (dosages per FIG. 7), 24 h, FIG. 7-9. As for the experimental part:
In this experiment, with eGFP-mRNA as model mRNA, an mRNA transfection efficiency of a cationic lipid analog material in DC 2.4 cells was detected. A specific operation method was as follows:
DC 2.4 cells were inoculated in a 48-well plate and cultured in an incubator for 12 h; each of different cationic lipid analog materials (0.25 μg/well to 2 μg/well) was mixed with cGFP-expressing mRNA (0.2 μg/well) in 20 μL of a sodium acetate buffer (25 mM, pH 5.2), and resulting mixtures each were allowed to stand for 10 min and then diluted with 230 μL of a Opti-MEM medium to obtain mRNA-loaded complex particle solutions; a medium for the […] were washed once with PBS, and the complex particle solutions were added; and the cells were cultured for 24 h, an mRNA transfection efficiency in cells was observed by FCM and LSCM. A commercial gene transfection reagent Lipofectamine 2000 was adopted as a positive control.

The subject of a further experiment is A549 cells (A549-Luc). The experiment can be described thus: siRNA transfection, luciferase gene silencing in A549-Luc cells. It counts as cell-based, human. Conditions: final siRNA 100 nM, material 0.5 to 3 μg/well, 48 h, FIG. 10. As to the method:
In this experiment, with I2R2C18-1A1, I2R3C18-1A1, I2R2C18-2A1, and I2R3C18-2A1 as representative cationic lipid analog materials, siRNA transfection and delivery effects of the cationic lipid analog materials were detected in A549 cells (A549-Luc). A specific operation method was as follows:
Luciferase-expressing A549 cells (A549-Luc) were inoculated in a 96-well plate and cultured in an incubator for 12 h; each of different materials (0.5 μg/well to 3 μg/well) was mixed with siRNA in 40 μL of a sodium acetate buffer (25 mM, pH 5.2), and resulting mixtures each were allowed to stand for 10 min and then diluted with 460 μL of an Opti-MEM medium to obtain siRNA-loaded complex particle solutions (final siRNA concentration was 100 nM); a medium for the A549-Luc cells in the plate was removed, then the A549-Luc cells were washed once with PBS, and the complex particle solutions each were added in a volume of 125 μL; the cells were cultured for 48 h, then a resulting culture supernatant was discarded, and the cells were fully lysed; and a substrate was added at 50 μl/well, and an expression level of luciferase was detected by a multi-mode microplate reader.

Experiment [2] deals with DC2.4, RAW 264.7, A549, BxPC3, and HeLa cells. The experiment in a line: Transfection of GFP-expressing plasmid DNA in different types of cells (LSCM). It counts as cell-based, human, mouse. As to conditions: material 0.5 to 3 μg/well, plasmid DNA 0.5 μg/well, 24 h, FIG. 6. As to the method: In this experiment, with I2R3C18-1A1 as a representative cationic lipid analog material and GFP-expressing plasmid DNA as a reporter gene, transfection effects of the cationic lipid analog material at different dosages (0.5 μg/well to 3 μg/well) for plasmid DNA (0.5 μg/well) in different types of cells were investigated. A commercial gene transfection reagent Lipofectamine 2000 was adopted as a positive control. In this experiment, a GFP-expressing plasmid DNA-loaded I2R3C18-1A1 particle complex solution was prepared with reference to the method in Example 8 and added to DC2.4, RAW 264.7, A549, BxPC3, and HeLa cells respectively, these cells were cultured for 24 h, and then a transfection efficiency of plasmid DNA in cells was observed by LSCM.

Experiment [3] relates to Hela cells. The experiment in a line: Transfection of luciferase-expressing plasmid DNA in HeLa cells (luciferase expression). Conditions: plasmid DNA 0.5 μg, 24 h, luciferase expression level, FIG. 5. Type of experiment: cell-based, human. As for the experimental part:
In this example, with luciferase-expressing plasmid DNA as a reporter gene, a gene transfection efficiency of a cationic lipid analog material in HeLa cells was detected. A specific operation method was as follows: Hela cells were inoculated in a 96-well plate and cultured in an incubator for 12 h; each of different cationic lipid analog materials was mixed with luciferase-expressing plasmid DNA (0.5 μg) in 40 μL of a sodium acetate buffer (25 mM, pH 5.2), and resulting mixtures each were allowed to stand for 10 min and then diluted with 460 μL of an Opti-MEM medium to obtain plasmid DNA-loaded cationic lipid analog complex particle solutions; a medium for the Hela cells in the plate was removed, then the Hela cells were washed once with PBS, and the complex particle solutions were added in a volume of 125 μL; the cells were cultured for 24 h, then a resulting culture supernatant was discarded, and the cells were fully lysed; and a substrate was added at 50 μl/well, and an expression level of luciferase was detected by a multi-mode microplate reader.

For `CCCCCCCC/C=C\CCCCCCCC(=O)N(CCCN(CC)CC)C(C(=O)NCCOCCOCCNC(=O)C(C(C)C)N(CCCN(CC)CC)C(=O)CCCCCCC/C=C\CCCCCCCC)C(C)C` (stereo not drawn) [I2R3C18-1A1], in the experiment on Hela cells [1], the “transfection efficiency of GFP-expressing plasmid DNA, compared with commercial transfection reagent Lipofectamine 2000” value was “reaches or is higher than; also recorded: equivalent to or higher than”. Moreover, the “mRNA transfection efficiency (eGFP-mRNA), compared with Lipofectamine 2000” value in the experiment with DC 2.4 cells is “high transfection efficiency; also recorded: equivalent to or higher than”. Moreover, in the experiment on A549 cells (A549-Luc), the “gene silencing efficiency as a function of material dosage” value is given as “increases with the increase of a dosage” and the “siRNA transfection, silencing of the luciferase reporter gene” value is reported as “efficient gene silencing; also recorded: can transfect siRNA into cells to specifically silence the expression of the luciferase reporter gene”. The “transfection of GFP-expressing plasmid DNA in different types of cells” value in experiment [2] is “can transfect GFP-expressing plasmid DNA into tumor cells and immune cells”. In addition, in the experiment with Hela cells [3], the “transfection efficiency of luciferase-expressing plasmid DNA, compared with Lipofectamine 2000” value is recorded as “equivalent to or higher than”.
